Experiment [1] has as its system ascites cells obtained during an operation of a patient with endometrial cancer (endometrioid adenocarcinoma). Put plainly: Live-cell fluorescence imaging of ascites cells, endometrial cancer patient, with later Papanicolaou staining (Example 2). It is filed as cell-based, human. The method, then:
Immediately after the start of laparotomy for endometrial cancer (endometrioid adenocarcinoma), the peritoneal cavity was washed with physiological saline in the same manner as in Example 1 to obtain a peritoneal washing, which was then added to a 50 mL centrifuge tube having 5 mL of the Hanks solution in advance. The resulting ascitic fluid suspension was centrifuged at […] for 2 minutes at room temperature, and the supernatant was removed by decantation. Subsequently, 30 mL of a commercially available solution of ammonium chloride for hemolysis was added, and allowed to stand for 2 minutes, and then centrifuged at 1500 G for 2 minutes at room temperature, and the supernatant was then removed by decantation. Some of the resulting pellet was set aside for cytodiagnosis tests at the hospital's pathology department, and the rest was further divided into 2 portions, each of which was dispersed into 40 mL of a KRB solution in 50 mL centrifuge tubes, and stored at room temperature an a dark place until application of fLG on the next day. […]
Observation and image acquisition were performed about 22 hours after obtaining ascites cells using the same instruments as in Example 1. […] Subsequently, a bright-field image and fluorescence images of the target cells were obtained using a high-power lens, and positional information on the stage was registered using a software dedicated for BZ-X700. […]

For experiment [2], the system named is cells in peritoneal washing obtained during an operation of a patient with endometrial cancer (endometrial endometrioid adenocarcinoma). Description: Live-cell fluorescence imaging by perfusion, cells in peritoneal washing, endometrial cancer patient (Example 5). It is filed as cell-based, human. Conditions: cell clusters a and b (apparent mesothelial cells and apparent macrophage cells); perfusion 100 μM 2-NBDLG and 20 μM 2TRLG; FIG. 11A/11B, 12D. The protocol:
A peritoneal washing obtained immediately after the start of laparotomy for endometrial cancer (endometrial endometrioid adenocarcinoma) in the same manner as in Example 1 was added to a 50 mL centrifuge tube having 5 mL of the Hanks solution in advance. Fibrin, fat, and impurities were removed from the ascitic fluid suspension in the same manner as in Example 4. Subsequently, a half of it was dispensed into a 50 mL centrifuge tube, and centrifuged at 1500 G for 2 minutes at room temperature. The supernatant was processed in the same manner as in Example 4 to obtain 1 mL of an ascites-cell suspension. • (2) Adhesion of Ascites Cells on Glass Plate by Centrifugation, and Method of Maintaining Cell Viability
The ascites-cell suspension in an amount of 1 mL taken at (1) was transferred to a plastic chamber dedicateded for CF-12D as in Example 4. The ascites cells were allowed to attach on a glass plate by centrifugation at 1400 rpm for 1 minute at room temperature. The plate was then treated as in Example 4, and stored in a moisture chamber until being mounted on the perfusion stage. • (3) Attachment of Glass Plate on Perfusion Stage and Perfusion […]
It was performed as in Example 4. Only a green fluorescence image was taken before administration of the fluorescently labeled L-glucose derivative. […]

“Also recorded” adds a separate entry of the source.

Consider `O=C[C@@H](Nc1ccc([N+](=O)[O-])c2nonc12)[C@H](O)[C@@H](O)[C@@H](O)CO` [2-NBDLG, 2-[N-(7-nitrobenz-2-oxa-1,3-diazole-4-yl)amino]-2-deoxy-L-glucose], for which the “intracellular localisation of 2-NBDLG uptake” value in experiment [1] (Cluster 1, FIG. 4A) is listed as “taken up into the cytoplasmic portion except for the nucleus”. For the same compound, in experiment [1] (two cancer-cell clusters (left cluster and Cluster 1), 100 μM 2-NBDLG and 20 μM 2TRLG, fLG applied about 20 hours after sampling, FIG. 3B, 4D), the “fluorescence from 2-NBDLG (green wavelength region)” value is “show fluorescence; also recorded: positive”. Further, the “fluorescence from 2-NBDLG (green wavelength region), after vs before application” value in experiment [2] is “Neither the cell cluster a nor b shows fluorescence; also recorded: negative”.
